Experimental data: article PMC10396955, “2-Oxabicyclo[2.1.1]hexanes as saturated bioisosteres of the ortho-substituted phenyl ring” (Nature Chemistry, 2023)
≈ marks a conversion by molar mass, not a printed value. Like-named read-outs stand apart in the source and are kept apart here.

How the values were obtained:
[1] = Kinetic solubility in phosphate-buffered saline, pH 7.4; format: physicochemical; details: phosphate-buffered saline, 25 °C, pH 7.4, aqueous buffer, kinetic from dmso stock
Protocol: Analysis of Aqueous Solubility […]
compound (Ondansetron) were assessed for kinetic solubility in phosphate-buffered saline, pH […]
Phosphate buffered saline, pH 7.4 (Sigma-Aldrich, USA; Cat #P3813) […]
MultiScreen HTS 96 Well Filter Plates (Millipore, Ireland; Cat # MSGVS2210) […]
Matrix Multichannel Electronic Pipette 2-125 µL, 5-250 µL, 15-1250 µL (Thermo Scientific, […]
Vacuum pump (Millipore, USA; Model # XX5500000)
The measurements were performed using SpectraMax Plus reader in UV-Vis mode. Acquisition and analysis of the data were performed using SoftMax Pro v.5.4 (Molecular Devices) and Excel […]
Kinetic solubility assay was performed according to the Enamine’s aqueous solubility SOP.
Briefly, using a 20 mM stock solution of the compound in 100% DMSO dilutions were prepared to a theoretical concentration of 400 μM in duplicates in phosphate-buffered saline pH 7.4 […]
for two hours and then filtered through HTS filter plates using a vacuum manifold. The filtrates of test compounds were diluted 2-fold with acetonitrile with 2% DMSO before measuring.
In parallel, compound dilutions in acetonitrile/PBS (1:1) were prepared to theoretical […]
DMSO to generate calibration curves. Ondansetron was used as reference compound to control proper assay performance. 200 μl of each sample was transferred to 96-well plate and measured in 200-550 nm range with 5 nm step.
The concentrations of compounds in PBS filtrate are calculated using a dedicated Microsoft Excel calculation script. Proper absorbance wavelengths for calculations are selected for each compound manually based on absorbance maximums (absolute absorbance unit values for the minimum and maximum concentration points within 0 – 3 OD range). Each of the final datasets is additionally visually evaluated by the operator and goodness of fit (R2) is calculated for each calibration curve. The effective range of this assay is approximately 2-400 μM and the […]

Fusarium oxysporum = assay: Antifungal activity, agar well diffusion method; format: cell-based; details: for zone of inhibition at 3.9 µg/mL / zone of inhibition at […] / zone of inhibition at 15.6 µg/mL / zone of inhibition at 31.25 µg/mL / zone of inhibition at 62.5 µg/mL / zone of inhibition at 125 µg/mL / zone of inhibition at 250 µg/mL / zone of inhibition at 500 µg/mL / zone of inhibition at 1000 µg/mL: Fusarium oxysporum, zones st (static growth), read-out: Diameter of inhibition zone; for zone of inhibition at 3.9 µg/mL: 0.0039 mg/mL; for zone of inhibition at […]: 0.0078 mg/mL; for zone of inhibition at 15.6 µg/mL: 0.0156 mg/mL; for zone of inhibition at 31.25 µg/mL: 0.03125 mg/mL; for zone of inhibition at 62.5 µg/mL: 0.0625 mg/mL; for zone of inhibition at 125 µg/mL: 0.125 mg/mL; for zone of inhibition at 250 µg/mL: 0.25 mg/mL; for zone of inhibition at 500 µg/mL: 0.5 mg/mL; for zone of inhibition at 1000 µg/mL: 1 mg/mL, 40 µl per well, 25 °C, 72 h; for lowest inhibition concentration: agar well diffusion, tested 0.0039-1.0 mg/mL
Source text: (§1) The agar well diffusion method is widely used to evaluate the antimicrobial activity of different substances (S. Magaldi, S. Mata-Essayag, C. Hartung de Capriles, et al. Well diffusion for antifungal susceptibility testing, Int. J. Infect. Dis. 8, 2004 , 39–45; C. Valgas, S. M. De Souza, E. F. A. Smânia, et al. Screening methods to determine antibacterial activity of natural products. Braz. J. Microbiol. 38 , 2007 , 369–380). Similarly to the procedure used in a disk-diffusion method, the agar plate surface is inoculated by spreading a volume of the microbial inoculum over the entire agar surface. Then, a hole with a diameter of 6 to 8 mm is punched aseptically with a sterile cork borer or a tip, and a volume […] of the antimicrobial agent or extract solution at desired concentration is introduced into the well. Then, agar plates are incubated under suitable conditions depending upon the test microorganism. The antimicrobial agent diffuses in the agar medium and inhibits the growth of the microbial strain tested (M. Balouiri, M. Sadiki, S. K. Ibnsouda. Methods for in vitro evaluating […]
(§2) Agar well diffusion method is a qualitative method used to measure the ability of compounds to inhibit microbial growth. This test is a quick and easy way to measure and compare levels of inhibitory […]
(§3) Antifungal activity of the synthetic compounds using agar well diffusion The compunds were tested towards plant pathogens Fusarium oxysporum Schltdl. and F. verticillioides (Sacc.) Nirenberg isolated from crops. Antifungal activity of the synthetic compounds was evaluated with using of an agar well diffusion method based on a disk diffusion assay for testing filamentous fungi (CLSI M51-A) [CLSI. Method for Antifungal Disk Diffusion Susceptibility Testing of Nondermatophyte Filamentous Fungi; Approved Guideline.CLSI document M51-A. Wayne, PA:
(§4) Clinical and Laboratory Standards Institute; 2010. This method is standardized for Altenaria , Aspergillus, Bipolaris , Fusarium , order Mucorales etc.
(§5) Preparation of synthetic compounds for mycological assay
(§6) Solutions of fungicides and its analogs were diluted in dimethyl sulfoxide (DMSO) to produce the […]
(§7) Antifungal well diffusion method
(§8) The fungal strains were cultured on potato dextrose agar slants (PDA, Eur. Pharm.) and incubated at 25 °C for 5 days. Sterile distilled water was used to cover and resuspend the colonies. Suspension of […]
(§9) conidia was adjusted to inoculums 5×10^6 conidia/mL. The suspension was further diluted in warm PDA 1:10 to obtain final working inoculums 5×10^5 conidia/mL.
(§10) Polypropylene cylinders (d, 5 mm) were placed on the surface and wells punched in the medium were used as reservoir of the test substances in different concentrations. 40 µl of solutions containing 0.0039-1.0 mg/mL of a test compound was added into the wells.
(§11) Each compound was tested in triplicate at different concentrations. Growth control was a well with 40 µl of DMSO, which was used for test components dilution.
(§12) Plates incubated at 25 °C for 72 h. The test compounds at known concentration into contact with an inoculated medium then exerts a growth-inhibiting effect then a clear zone (the zone of inhibition) appears around the test product. Diameter of a clear zone around the well is measured at the end of the incubation period in millimeters. If the fungal strain is susceptible to the antifungal agent, then a zone of inhibition appears on the agar plate. If it is resistant to the test compound, then no zone is evident.
(§13) The size of the zone of inhibition is usually related to the level of antifungal activity present in the […]
(§14) The growth rate of Fusarium oxysporum and F. verticillioides for each well was determined visually and compared with the growth of control.
(§15) As shown in the table the antifungal activity of the 6 compounds, - Fluxapyroxad, compound 28, compound 29, Boscalid, compound 30, compound 31, - were tested against plant pathogenic fungal […]
(§16) toward Fusarium oxysporum (Table S5, Figure S16). Inhibition zones of all compounds characterized […]

Fusarium verticillioides = assay: Antifungal activity, agar well diffusion method; format: cell-based; details: for zone of inhibition at 3.9 µg/mL / zone of inhibition at […] / zone of inhibition at 15.6 µg/mL / zone of inhibition at 31.25 µg/mL / zone of inhibition at 62.5 µg/mL / zone of inhibition at 125 µg/mL / zone of inhibition at 250 µg/mL / zone of inhibition at 500 µg/mL / zone of inhibition at 1000 µg/mL: Fusarium verticillioides, 0 = absence of antifungal activity, read-out: Diameter of inhibition zone; for zone of inhibition at 3.9 µg/mL: 0.0039 mg/mL; for zone of inhibition at […]: 0.0078 mg/mL; for zone of inhibition at 15.6 µg/mL: 0.0156 mg/mL; for zone of inhibition at 31.25 µg/mL: 0.03125 mg/mL; for zone of inhibition at 62.5 µg/mL: 0.0625 mg/mL; for zone of inhibition at 125 µg/mL: 0.125 mg/mL; for zone of inhibition at 250 µg/mL: 0.25 mg/mL; for zone of inhibition at 500 µg/mL: 0.5 mg/mL; for zone of inhibition at 1000 µg/mL: 1 mg/mL, 40 µl per well, 25 °C, 72 h
Source text: as §1, §2, §3, §4, §5, §6, §7, §8, §9, §10, §11, §12, §13, §14, §15, §16

[2] = Table S1, incubation 1, read-out: PBS solubility, pH 7.4, Incubation 1
[3] = Table S1, incubation 2, read-out: PBS solubility, pH 7.4, Incubation 2
[4] = experimental kinetic solubility in phosphate-buffered saline at pH 7.4, Fig. 3, read-out: Solubility

SMILES: Cn1cc(C(=O)N[C@@H]2[C@@H]3CC[C@@]2(c2cc(F)c(F)c(F)c2)C3)c(C(F)F)n1 (relative stereo) [Compound 28]
- solubility at 2 h [1, 2]: 35 µM (≈ 13.5 µg/mL)
- solubility at 2 h [1, 3]: 33 µM (≈ 12.7 µg/mL)
- solubility at 2 h [1, 4]: 34 µM (≈ 13.1 µg/mL)
- zone of inhibition at 3.9 µg/mL (Fusarium oxysporum): 20 mm
- zone of inhibition at […] (Fusarium oxysporum): 25 mm
- zone of inhibition at 15.6 µg/mL (Fusarium oxysporum): 26 ± 1 mm
- zone of inhibition at 31.25 µg/mL (Fusarium oxysporum): 28 ± 1 mm
- zone of inhibition at 62.5 µg/mL (Fusarium oxysporum): 30 ± 0.6 mm
- zone of inhibition at 125 µg/mL (Fusarium oxysporum): 34 ± 1.2 mm
- zone of inhibition at 250 µg/mL (Fusarium oxysporum): 38 ± 1.5 mm
- zone of inhibition at 500 µg/mL (Fusarium oxysporum): 38 ± 0.6 mm
- zone of inhibition at 1000 µg/mL (Fusarium oxysporum): 44 ± 1.15 mm
- lowest inhibition concentration (Fusarium oxysporum): < 0.0039 mg/mL
- zone of inhibition at 3.9 µg/mL (Fusarium verticillioides): 35 ± 1.5 mm
- zone of inhibition at […] (Fusarium verticillioides): 37 ± 1.5 mm
- zone of inhibition at 15.6 µg/mL (Fusarium verticillioides): 41 ± 1.2 mm
- zone of inhibition at 31.25 µg/mL (Fusarium verticillioides): 41 ± 1.7 mm
- zone of inhibition at 62.5 µg/mL (Fusarium verticillioides): 47 ± 1 mm
- zone of inhibition at 125 µg/mL (Fusarium verticillioides): 48 ± 1.5 mm
- zone of inhibition at 250 µg/mL (Fusarium verticillioides): 51 ± 1.5 mm
- zone of inhibition at 500 µg/mL (Fusarium verticillioides): 51 ± 1.7 mm
- zone of inhibition at 1000 µg/mL (Fusarium verticillioides): 58 ± 1.5 mm

SMILES: Cn1cc(C(=O)N[C@@H]2[C@H]3C[C@]2(c2cc(F)c(F)c(F)c2)CO3)c(C(F)F)n1 (relative stereo) [Compound 29]
- solubility at 2 h [1, 2]: 151 µM (≈ 58.5 µg/mL)
- solubility at 2 h [1, 3]: 158 µM (≈ 61.2 µg/mL)
- solubility at 2 h [1, 4]: 155 µM (≈ 60 µg/mL)
- zone of inhibition at 3.9 µg/mL (Fusarium oxysporum): 9 ± 1.2 mm
- zone of inhibition at […] (Fusarium oxysporum): 13 ± 1.5 mm
- zone of inhibition at 15.6 µg/mL (Fusarium oxysporum): 14 ± 1.2 mm
- zone of inhibition at 31.25 µg/mL (Fusarium oxysporum): 18 ± 1.5 mm
- zone of inhibition at 62.5 µg/mL (Fusarium oxysporum): 18 ± 0.6 mm
- zone of inhibition at 125 µg/mL (Fusarium oxysporum): 23 ± 0.6 mm
- zone of inhibition at 250 µg/mL (Fusarium oxysporum): 32 ± 1.7 mm
- zone of inhibition at 500 µg/mL (Fusarium oxysporum): 36 ± 1 mm
- zone of inhibition at 1000 µg/mL (Fusarium oxysporum): 38 ± 1.53 mm
- lowest inhibition concentration (Fusarium oxysporum): 0.0039 mg/mL
- zone of inhibition at 3.9 µg/mL (Fusarium verticillioides): 0 mm
- zone of inhibition at […] (Fusarium verticillioides): 10 mm
- zone of inhibition at 15.6 µg/mL (Fusarium verticillioides): 15 ± 0.6 mm
- zone of inhibition at 31.25 µg/mL (Fusarium verticillioides): 26 ± 1.2 mm
- zone of inhibition at 62.5 µg/mL (Fusarium verticillioides): 31 ± 1.2 mm
- zone of inhibition at 125 µg/mL (Fusarium verticillioides): 35 ± 1 mm
- zone of inhibition at 250 µg/mL (Fusarium verticillioides): 39 ± 1.2 mm
- zone of inhibition at 500 µg/mL (Fusarium verticillioides): 41 ± 1.7 mm
- zone of inhibition at 1000 µg/mL (Fusarium verticillioides): 45 ± 0.6 mm
- lowest inhibition concentration (Fusarium verticillioides; agar well diffusion, tested 0.0039-1.0 mg/mL): 0.0078 mg/mL
